Results as given in patent US9758477B2, “Sulfamoylbenzamide derivatives as antiviral agents against HBV infection” (priority 2011, dated 2017).
Where two headings read alike, the source gives them in different places.

Experiments:
[1] = Cytotoxicity in AML12HBV10 cells, MTT assay; type: cell-based, murine; settings: mouse; AML12HBV10 cells, 48 hours, MTT; read-out: CC50 (cellular toxicity)
Description: (§1) Determination of cytotoxicity of compounds of the disclosure in AML12HBV10 cells: To determine the cytotoxicity of the compounds, AML12HBV10 cells were seeded into 96-well plates at a density of 2×10^4 cells per well and cultured in DMEM/F12 media with 10% fetal bovine serum in the absence of tetracycline to allow pgRNA transcription and HBV DNA replication. One day after seeding, cells were left untreated or treated with a serial dilution of testing compounds, ranging from 50 μM to 0.39 μM, for 48 hours. The cell viability was measured by a MTT assay, following procedure provided by the manufacturer (Promega). The cytotoxicity of a compound was expressed as the concentration of compound that reduces the viability of the cells by 50% (CC50).

HBV [2] = assay: Antiviral efficacy in AML12HBV10 cells, HBV DNA by dot-blot hybridization; type: cell-based, Hepatitis B virus (HBV)
Description: The antiviral efficacy of the compounds of the disclosure, as presented in Tables 5, 6, 7, 8 and 9, were determined in AML12HBV10 cells. AML12HBV10 is an immortalized murine hepatocyte (AML12)-derived stable cell line that supports robust HBV replication in a tetracycline inducible manner (Xu et al.). The cells were seeded into 96 well plates at a density of 2×10^4 cells per well and cultured in DMEM/F12 media with 10% fetal bovine serum in the absence of tetracycline to allow pgRNA transcription and HBV DNA replication. One day after seeding, cells were left untreated or treated with a serial dilution of testing compounds, ranging from 50 μM to 0.39 μM, for 48 hours. Cells were then lysed by adding into each well of 100 μl lysis buffer containing 10 mM Tris-HCl (pH 7.6), 1 mM EDTA, 100 mM NaCl and 1% NP-40 and incubated at 37° C. for 30 minutes. Half amount (50 μl) of cell lysate from each well was combined with equal volume of denaturing solution containing 0.5N NaOH and 1.5M NaCl. After 5 minute incubation, 100 μl of neutralization solution (IM Tris-HCl, pH 7.4, 1.5M NaCl) was added into each well. The denatured cell lysates (totally 200 μl) were applied onto Nylon membrane using 96-well dot-blot manifold (Biorad). HBV DNA in the cell lysates were determined by dot-blot hybridization with alpha-^32P-UTP-labelled riboprobe specific for HBV minus strand DNA. The antiviral efficacy of a compound of the disclosure was expressed as the concentration that reduces the amount of HBV DNA by 50% (EC50).

[3] = test system: capsid-associated HBV DNA; assay: Nucleocapsid-associated HBV DNA and DNA replication intermediates (particle gel hybridization, Southern blot); type: cell-based, Hepatitis B virus (HBV); settings: AML12HBV10 cells, 2 days, FIG. 3 panels D and E; Bay41-4109 5 μM, AT-61 25 μM
Description: (§2) To obtain mechanistic insight of the compounds of present invention against HBV, AML12HBV10 cells cultured in the 12-well plates were treated with a series of concentrations of DVR-1, DVR-56 or DVR-23 for two days in the absence of tetracycline (Guo et al., 2007). As positive controls, the cells were also treated with Bay41-4109 (5 μM) or AT-61 (25 μM), the known HBV nucleocapsid assembly effectors that either bind to HBV core protein dimmer to misdirect its interaction and prevent capsid formation (Bay41-4109) (Deres et al., 2003: Stray and Zlotnick, 2006), or interact with a core assembly intermediate and promote the formation of empty capsids (AT-61) (Feld et al., 2007; Katen et al., King et al., 1998). The amounts of intracellular viral mRNA, encapsidated pgRNA, capsids and nucleocapsid-associated HBV DNA were analyzed with the methods detailed below.
Procedures of viral capsids and nucleocapsid-associated DNA analysis: HepDES19 cells were lysed by addition of 300 μl buffer containing 10 mM Tris-HCl (pH7.6), 100 mM NaCl, 1 mM EDTA and 0.1% NP-40 to each well of 12-well plate. […] HBV capsids were detected by probing the membrane with an antibody against HBV core protein (DAKO). […] The viral DNA was detected by hybridization with a α-^32P-UTP (800 Ci/mmol, Perkin Elmer) labeled minus strand specific full-length HBV riboprobe (Xu et al.). […]

encapsidated pgRNA = assay: Encapsidated pgRNA by Northern blot in AML12HBV10 cells; type: cell-based, Hepatitis B virus (HBV); settings: 2 days, FIG. 3 panel C, Bay41-4109 5 μM, AT-61 25 μM
Description: as §2
Determination of encapsidated pgRNA: AML12HBV10 cells were lysed by addition of 600 μl of lysis buffer (50 mM Tris-HCl [pH 7.5], 1 mM EDTA, 150 mM NaCl, 1% NP-40) into each well of 12-well plates. The nuclei were removed by centrifugation at 5,000 g for 10 minutes. One-half of the sample was mixed with 6 U of micrococcal nuclease (Pharmacia) and 15 μl of 100 mM CaCl2 and incubated for 15 minutes at 37° C. to digest free nucleic acids. The reaction was stopped with 6 μl of 0.5 M EDTA, and capsids were precipitated by adding 125 μl of 35% polyethylene glycol 8000 in 1.75 M NaCl to the reaction and incubating in ice for 30 minutes, followed by centrifugation at 6,000 g for 10 minutes at 4° C. Pellets were re-suspended in 50 μl of TNE buffer (10 mM Tris-HCl [pH 8], 100 mM NaCl, 1 mM EDTA), pgRNA was extracted by the addition of 1 ml of Trizol reagent. The encapsidated pgRNA were electrophoresed through a 2.2 M formaldehyde-1% agarose gel, transferred to a nylon membrane, and immobilized by UV cross-linking (Stratagene). Hybridization was performed with an alpha-^32P-UTP labeled riboprobe specific for plus strand of HBV genome.

HBV capsids = assay: Viral capsids by particle gel assay; type: cell-based, Hepatitis B virus (HBV); settings: AML12HBV10 cells, 2 days, FIG. 3 panel B; Bay41-4109 5 μM, AT-61 25 μM
Description: as §2
Procedures of viral capsids and nucleocapsid-associated DNA analysis: HepDES19 cells were lysed by addition of 300 μl buffer containing 10 mM Tris-HCl (pH7.6), 100 mM NaCl, 1 mM EDTA and 0.1% NP-40 to each well of 12-well plate. […] HBV capsids were detected by probing the membrane with an antibody against HBV core protein (DAKO). […] The viral DNA was detected by hybridization with a α-^32P-UTP (800 Ci/mmol, Perkin Elmer) labeled minus strand specific full-length HBV riboprobe (Xu et al.).

AML12HBV10 cells = assay: Cytotoxicity in AML12HBV10 cells, MTT assay; type: cell-based, murine
Description: as §1

HBV [4] = assay: Antiviral activity in HepDES19 cells, core-associated HBV DNA by Southern blot hybridization; type: cell-based; settings: Hepatitis B virus, 144 h, Table 10, HepDES19 cells, 6 days, unit inferred
Description: FIG. 2 and Table 10, in human hepatoma-derived cell lines: To further confirm the antiviral activity of the compounds of the disclosure against HBV in human hepatocyte-derived cells, HepDES19 cells, a human hepatoma cell line supporting HBV replication in a tetracycline inducible manner (Guo et al., 2007), seeded into 12-well plates at a density of 5×10^5 cells per well and cultured in DMEM/F12 media with 10% fetal bovine serum and 1 μg/ml tetracycline. Two days after seeding, the cells were mock-treated or treated with a serial dilution of compounds of the disclosure, ranging from 10 μM to 0.018 μM, for 6 days in the absence of tetracycline. Upon the completion of treatment, cells were lysed by adding into each well of the 12-well plates 0.5 ml of lysis buffer containing 10 mM Tris-HCl (pH 8.0), 1 mM EDTA, 1% NP40 and 2% sucrose and incubating at 37° C. for 10 minutes. Cell debris and nuclei were removed by centrifugation and the supernatant was mixed with 130 μl of 35% polyethylene glycol (PEG) 8000 containing 1.5 M NaCl. After 1 hour incubation in ice, viral nucleocapsids were pelleted by centrifugation at 6,000×g for 5 min at 4° C., followed by 1 hour digestion at 37° C. in 400 μl of digestion buffer containing 0.5 mg/ml pronase (Calbiochem), 0.5% SDS, 150 mM NaCl, 25 mM Tris-HCl (pH 8.0) and 10 mM EDTA. The digestion mixture was extracted twice with phenol and DNA was precipitated with ethanol, dissolved in TE buffer (10 mM Tris-HCl, pH 8.0; 0.1 mM EDTA). One half of the DNA sample from each well was resolved by electrophoresis into a 1.5% agarose gel. The gel was then subjected to denaturation in a solution containing 0.5 M NaOH and 1.5 M NaCl, followed by neutralization in a buffer containing 1 M Tris-HCl (pH7.4) and 1.5 M NaCl. DNA was then blotted onto Hybond-XL membrane (GE Health care) in 20×SSC buffer. The amounts of cytoplasmic HBV core-associated HBV DNA were determined by Southern blot hybridization and the antiviral efficacy of a compound was expressed as its concentration that reduce the amount of HBV DNA by 50% (EC50) or 90% (EC90).

[5] = Cytotoxicity in HepDES19 cells, MTT assay; type: cell-based; settings: human, Table 10, HepDES19 cells, unit inferred
Description: as §1, with “human hepatoma-derived cell lines, HepDES19” for “AML12HBV10 cells: To determine the cytotoxicity of the compounds, AML12HBV10”, “2×10^4” left out, “tetracycline.” for “tetracycline to allow pgRNA transcription and HBV DNA replication.”, “6 days.” for “48 hours.”

[6] = Hepatitis B virus, AML12HBV10 cells, 48 hours, concentration reducing HBV DNA by 50%, read-out: EC50 (antiviral activity by dot blot hybridization)
[7] = AML12HBV10 cells, 48 hours, MTT, read-out: CC50 (cellular toxicity)
[8] = AML12HBV10 cells, 48 hours, concentration reducing HBV DNA by 50%, read-out: EC50 (antiviral activity by dot blot hybridization)

`O=C(NCc1ccccc1)c1ccc2c(c1)NC(=O)c1ccccc1S2(=O)=O` showed a CC50 at 48 h [1] of over 50 µM and an EC50 (HBV [2]; [6]) of 8 µM.
With `O=C(N/C(C(=O)N1CCCCC1)=C(/Cl)c1ccccc1)c1ccccc1` [AT-61] the “capsid-associated HBV DNA / DNA synthesis” value [3] was “dose-dependently reduced”, the “level of encapsidated pgRNA” value (encapsidated pgRNA) was “dose-dependently reduced” and the capsid formation (HBV capsids) was “did not affect”.
In the case of `COC(=O)C1=C(C)NC(c2ncc(F)cc2F)=N[C@H]1c1ccc(F)cc1Cl` [Bay41-4109], the “capsid-associated HBV DNA / DNA synthesis” value [3] is reported as “completely abolished”, the “level of encapsidated pgRNA” value (encapsidated pgRNA) is reported as “completely abolished” and the capsid formation (HBV capsids) is reported as “completely abolished”.
In the case of `Cc1cccc(NC(=O)c2cc(S(N)(=O)=O)ccc2Cl)c1` [DVR-16], the CC50 (AML12HBV10 cells; [7]) is reported as over 50 µM and the EC50 (HBV [2]; [8]) is reported as 6 µM.
In the case of `NS(=O)(=O)c1cc(C(=O)Nc2cccc(C(F)(F)F)c2)ccc1F` [DVR-19], the CC50 (AML12HBV10 cells; [7]) is reported as over 50 µM and the EC50 (HBV [2]; [8]) is reported as 9 µM.
For `NS(=O)(=O)c1cc(C(=O)Nc2cc(C(F)(F)F)ccc2Cl)ccc1F` [DVR-21], the CC50 (AML12HBV10 cells; [7]) was over 50 µM and the EC50 (HBV [2]; [8]) was 6.8 µM.
Work on `NS(=O)(=O)c1cccc(C(=O)Nc2ccccc2)c1` [DVR-22] yielded a CC50 (AML12HBV10 cells; [7]) of over 50 µM and an EC50 (HBV [2]; [8]) of 8 µM.
`C=CCNS(=O)(=O)c1ccc(F)c(C(=O)Nc2ccc(F)c(F)c2)c1` [DVR-34] showed a CC50 (AML12HBV10 cells; [7]) of over 50 µM and an EC50 (HBV [2]; [8]) of 4 µM.
With `O=C(Nc1ccc(F)c(F)c1)c1cc(S(=O)(=O)NC2CCCCC2)ccc1F` [DVR-45, 5-cyclohexylsulfamoyl-N-(3,4-difluoro-phenyl)-2-fluoro-benzamide] the EC90 (HBV [4]; HBV DNA reduced by 90%) was 2.11 µM, the EC50 (HBV [4]; Southern blot) was 0.48 µM and the CC50 at 6 days [5] was over 50 µM. It also gave a CC50 at 48 h [1] of over 50 µM, a CC50 (AML12HBV10 cells; Table 10, AML12HBV10 cells, unit inferred, read-out: AML12HBV10 CC50) of over 50 µM and an EC50 (HBV [2]; [6]) of 0.8 µM. For the same compound, the EC50 (HBV [2]; Hepatitis B virus, Table 10, AML12HBV10 cells, unit inferred, read-out: AML12HBV10 EC50) was 0.8 µM.
Work on `COc1ccc(CCNS(=O)(=O)c2ccc(F)c(C(=O)Nc3ccc(Cl)cc3)c2)cc1OC` [DVR-91] yielded a CC50 (AML12HBV10 cells; [7]) of over 50 µM and an EC50 (HBV [2]; [8]) of 16.8 µM.
